Measurements as given in patent US20220305017A1, “COMPOSITIONS AND METHODS FOR THE TREATMENT OF ESTROGEN-DEPENDENT DISORDERS” (ObsEva S.A., priority 2019, published 2022).
Values joined by “and” are separate entries in the source; they are usually repeats but may differ in a detail not shown here. Equal entries are not always repeated.

What was measured:
[1] = tested on: human female patients diagnosed as having adenomyosis; assay: human clinical trial in adenomyosis (single-patient longitudinal case study and multi-patient analysis, n = 6); type: in vivo
From the text: This examples describes the results of a human clinical trial conducted to evaluate the ability of a GnRH antagonist, 3-[2-fluoro-5-(2,3-difluoro-6-methoxybenzyloxy)4-methoxyphenyl]-2,4-dioxo-1,2,3,4-tetrahydrothieno [3,4d]pyrimidine-5-carboxylic acid (represented by formula (VI)), or a pharmaceutically acceptable salt thereof, to treat adenomyosis, an estrogen-dependent disease, in human patients diagnosed as having this condition.
One aim of this study was to investigate the ability of the GnRH antagonist to maintain its therapeutic effects despite being administered to patients in a progressively lower dosage throughout the trial. To this end, the patients treated in this study was first administered the GnRH antagonist of formula (VI) in an amount of 200 mg/day during an initial 12-week period. The GnRH antagonist was then administered to the patients in a reduced amount of 100 mg/day during a subsequent 12-week period. The patients' responsiveness to the GnRH antagonist was monitored throughout the study.
In addition to assessing the effectiveness of the GnRH antagonist when administered at lower doses, another aim of this study was to evaluate the ability of the GnRH antagonist to sustain its therapeutic effects even after treatment was ceased altogether. Accordingly, after being periodically administered the GnRH antagonist of formula (VI) over the course of 24 weeks, first in an amount of 200 mg/day and then in an amount of 100 mg/day, treatment with the GnRH antagonist was halted entirely. The patients were then monitored during a post-treatment follow-up period to analyze the extent to which the therapeutic effects of the compound were sustained.
To test the effects of compound (VI), a total of n=6 human female patients diagnosed as having adenomyosis were administered compound (VI) in accordance with the dosing schedule described above. One of these patients in particular was closely monitored beginning well before their treatment with compound (VI) was initiated. The specific results of this patient's therapy are described in the section entitled “Single-Patient Longitudinal Case Study,” below. The cumulative set of results for all 6 patients is reported in the section entitled “Multi-Patient Analysis,” below.
As part of the clinical trial, a case study was conducted in which a single patient of reproductive age having clinically diagnosed adenomyosis was monitored during the course of treatment with compound (VI). The patient was nulliparous. Two years before the study began, the patient presented with heavy menstrual bleeding, pelvic pain, and dysmenorrhea. […] Their gynecologist prescribed ulipristal acetate (UPA), a selective progesterone receptor modulator (SPRM), to be administered in an amount of 5 mg/day over the course of a treatment period lasting three months.
The patient was then recommended for treatment with the GnRH antagonist represented by formula (VI) herein. Accordingly, the patient was orally administered compound (VI) in an amount of 200 mg/day for three months. Following this initial three-month period, the patient was orally administered compound (VI) in a reduced amount of 100 mg/day for a subsequent three-period. During both treatment periods, compound (VI) was administered to the patient in the form of a choline salt.
The patient was recommended for once-daily treatment with the GnRH antagonist of formula (VI). Accordingly, the patient was administered the GnRH antagonist of formula (VI) in an amount of 200 mg/day during a first treatment period, which lasted three months. At the conclusion of the first treatment period, the patient began a second treatment period in which they were administered compound (VI) in a reduced amount of 100 mg/day for three months. During both treatment periods, compound (VI) was administered to the patient in the form of a choline salt. […]

[2] = tested on: human female patients diagnosed as having uterine fibroids; assay: PRIMROSE 1 Phase 3 placebo-controlled trial in uterine fibroids; type: in vivo; details: for proportion of patients with menstrual blood loss ≤80 mL and ≥50% reduction from baseline: 24 weeks
From the text: This example describes the results of two Phase 3, double-blind, randomized, placebo-controlled, multicenter, human clinical trials undertaken to evaluate the efficacy of the GnRH antagonist represented by formula (VI) in a series of patients suffering from uterine fibroids. In these trials, referred to herein as “PRIMROSE 1” and “PRIMROSE 2,” human female patients diagnosed as having uterine fibroids were periodically administered compound (VI), 3-[2-fluoro-5-(2,3-difluoro-6-methoxybenzyloxy)4-methoxyphenyl]-2,4-dioxo-1,2,3,4-tetrahydrothieno [3,4d]pyrimidine-5-carboxylic acid, in the form of a choline salt over the course of a 12-month treatment period. Patients were administered compound (VI) once daily in an amount of either 100 mg or 200 mg. Patients receiving compound (VI) in a daily amount of 200 mg also received once daily hormonal add-back therapy (ABT), which consisted of […] of β17-estradiol (E2) per day and 0.5 mg of norethindrone acetate (NETA) per day.
The PRIMROSE 1 study, conducted in the United States, enrolled 526 women. The PRIMROSE 2 study, conducted in the United States and Europe, enrolled 535 women.
Patients were randomized to one of several cohorts: (i) placebo, (ii) 100 mg/day of compound (VI), or (iii) 200 mg/day of compound (VI). Patients receiving 200 mg/day of compound (VI) also received once-daily ABT containing 1.0 mg E2 and 0.5 mg NETA.
Patients were assessed for uterine fibroid symptomology at baseline, after 24 weeks of treatment, and again after 52 weeks of treatment. […] Patients were also assessed in order to determine the number of days of uterine bleeding during their last 28-day interval prior to week 24 of treatment with placebo or compound (VI).
Pain levels were measured using a Verbal Rating Score (VRS), as described herein. Patients were also assessed to determine the proportion that reported an improvement in quality of life using the Uterine Fibroids Symptoms and Health-Related Quality of Life questionnaire.
To evaluate the safety of compound (VI), patients' bone mineral density levels were measured at baseline and at various timepoints during the studies.

[3] = n = 6, after 12 weeks, 200 mg/day
[4] = single patient, after 24 weeks (200 mg/day 12 weeks, then 100 mg/day 12 weeks)

COc1cc(F)c(-n2c(=O)[nH]c3csc(C(=O)O)c3c2=O)cc1OCc1c(OC)ccc(F)c1F [Compound (VI), 3-[2-fluoro-5-(2,3-difluoro-6-methoxybenzyloxy)4-methoxyphenyl]-2,4-dioxo-1,2,3,4-tetrahydrothieno [3,4d]pyrimidine-5-carboxylic acid]
serum E2 ([1]; all n = 6 cases, first 12 weeks, 200 mg/day): less than 20 pg/ml
anemia ([1]; all n = 6 patients, after 12 weeks, 200 mg/day): resolved
adenomyotic lesions by MRI ([1]; all n = 6 patients, after 24 weeks): remained smaller than those observed at baseline
BMD by DEXA ([1]; each of n = 6 patients, after 24 weeks): either minimal change or no change from baseline
Week 24 Uterine Volume ([1]; individual patients 1-3, 200 mg/day 12 weeks, then 100 mg/day 12 weeks, MRI): 440 cm^3 and 75 cm^3 and 266 cm^3
Week 12 Uterine Volume ([1]; individual patients 1-6, 200 mg/day oral for 12 weeks (choline salt), MRI): 81 cm^3 and 70 cm^3 (2×) and 290 cm^3 and 84 cm^3 and 138 cm^3
side effects ([1]; n = 6, 200 mg/day treatment period, resolved after reduction to 100 mg/day): hot flushes and vaginal dryness
menstrual status [1, 3]: sustained amenorrhea
pelvic pain [1, 3]: substantially reduced
mean uterine volume by MRI ([1]; n = 6, after 12 weeks, 200 mg/day, baseline mean 320 cm^3): 122 cm^3
menstrual status ([1]; n = 6, weeks 13-24, 100 mg/day): remained in amenorrhea
all of the remaining EHP-30 scales ([1]; single patient, after 24 weeks): 0
endometrial thickness by vaginal ultrasound ([1]; single patient, after 24 weeks): 3 mm
hemoglobin (Hb) level [1, 4]: 13.6 g/dL
uterine volume by MRI [1, 4]: 440 cm^3
menstrual status ([1]; single patient, after 24 weeks of treatment): still in amenorrhea
EHP-30 scale for emotional well-being ([1]; single patient, after 24 weeks, baseline 58.3): 4.2
uterine volume on clinical evaluation, equivalent weeks of gestation ([1]; single patient, after first 12 weeks, 200 mg/day, 16-17 weeks before treatment): 10 weeks of gestation
uterine volume by MRI ([1]; single patient, after first 12 weeks, 200 mg/day, baseline approximately 875 cm^3): 290 cm^3
concentration of E2 ([1]; single patient, after four weeks of 200 mg/day oral (choline salt), baseline 45 pg/mL): less than 20 pg/mL
side effects (hot flushes, vaginal dryness) after dose reduction ([1]; single patient, after reduction to 100 mg/day): disappeared
5-scaled EHP-30 score ([1]; single patient, end of first 12 weeks, 200 mg/day): 0
side effects ([1]; single patient, first treatment period, 200 mg/day): a few instances of hot flushes and vaginal dryness
menstrual status ([1]; single patient, initial 12-week period, 200 mg once daily): remained in amenorrhea
hemoglobin (Hb) level ([1]; single patient, week 12, 200 mg/day, baseline 10 g/dL): 12.2 g/dL
E2 level ([1]; single patient, week 16, reduced dose 100 mg/day (weeks 13-24)): 38 pg/mL
E2 level ([1]; single patient, week 20, reduced dose 100 mg/day (weeks 13-24)): 26 pg/mL
E2 level ([1]; single patient, week 24, reduced dose 100 mg/day (weeks 13-24)): 52 pg/mL
bone mineral density T-scores and Z-scores (femoral neck, lumbar spine), DEXA ([1]; single patient, week 24 versus baseline): unchanged
p value: Improvement in quality of life, Change from baseline in quality of life (QoL) symptom severity score (LS mean) ([2]; 100 mg/day): p = 0.002
p value: Improvement in quality of life, Change from baseline in quality of life (QoL) symptom severity score (LS mean) ([2]; 200 mg/day + once-daily ABT): p < 0.001
proportion of patients with menstrual blood loss ≤80 mL and ≥50% reduction from baseline ([2]; 100 mg per day without ABT, p=0.003, placebo 35%): 56.4%
proportion of patients with menstrual blood loss ≤80 mL and ≥50% reduction from baseline ([2]; 200 mg per day + ABT (1.0 mg E2 + 0.5 mg NETA), p<0.001, placebo 35%): 75.5%
bone mineral density, lumbar spine ([2]; once-daily treatment, 24 and 52 weeks, FIG. 9): does not induce a substantial decrease in bone mineral density
